Assay results taken from patent US10407422B2, “Triazolopyridine inhibitors of myeloperoxidase” (priority 2015, dated 2019).

Legend:
myeloperoxidase (MPO) [1] = target: T1, myeloperoxidase (MPO) (Homo sapiens (Human), UniProt P05164); experiment: MPO peroxidation assay (Amplex Red assay); assay type: biochemical; details: potency range class
Method in brief: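 Human MPO at 200 pM with 40 nM H2O2 preincubated 10 min at room temperature with inhibitor in 100 mM KPi pH 7.4. Reaction started with Amplex Red mixture (200 μM Amplex Red, 10 mM H2O2); resorufin fluorescence (Ex 535, Em 590 nm) read kinetically for 15 min. IC50 fitted from slopes over 180-540 s.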

myeloperoxidase (MPO) [2] = target: T1, myeloperoxidase (MPO); experiment: MPO chlorination assay (APF assay); assay type: biochemical; details: potency range class
Method in brief: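 Human MPO (200 pM) preincubated 10 min at room temperature with inhibitor and 120 mM NaCl in 100 mM KPi pH 7.4. Reaction started with APF plus 10 μM H2O2, and hypochlorite-generated fluorescein read kinetically (ex 485/em 535 nm) for 3 min. IC50 from linear-phase slopes fitted to a four-parameter equation.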

T1 sequence (P05164 49-745): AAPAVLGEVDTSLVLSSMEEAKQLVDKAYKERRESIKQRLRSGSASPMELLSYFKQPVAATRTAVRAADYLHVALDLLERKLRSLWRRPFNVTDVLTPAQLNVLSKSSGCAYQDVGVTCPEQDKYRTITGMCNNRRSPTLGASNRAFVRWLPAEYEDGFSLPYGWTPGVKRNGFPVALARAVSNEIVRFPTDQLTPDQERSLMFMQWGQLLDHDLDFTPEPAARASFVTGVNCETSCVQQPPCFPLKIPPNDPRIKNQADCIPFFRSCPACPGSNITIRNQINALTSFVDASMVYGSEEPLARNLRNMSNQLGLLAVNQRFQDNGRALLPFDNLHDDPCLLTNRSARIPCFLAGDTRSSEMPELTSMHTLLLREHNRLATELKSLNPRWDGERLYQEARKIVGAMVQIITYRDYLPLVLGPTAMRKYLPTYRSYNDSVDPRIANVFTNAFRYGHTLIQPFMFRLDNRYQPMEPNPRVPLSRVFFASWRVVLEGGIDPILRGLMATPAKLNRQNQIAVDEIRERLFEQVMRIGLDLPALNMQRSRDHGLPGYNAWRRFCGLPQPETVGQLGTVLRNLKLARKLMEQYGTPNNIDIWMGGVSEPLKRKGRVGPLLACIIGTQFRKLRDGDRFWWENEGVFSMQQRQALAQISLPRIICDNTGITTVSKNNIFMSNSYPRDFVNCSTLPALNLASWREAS

Compound | IC50 (myeloperoxidase (MPO) [1]) | IC50 (myeloperoxidase (MPO) [2])
Nc1cc(Cc2cnn(-c3cccc(F)c3)c2)c2nn[nH]c2n1 [Example 3, 7-((1-(3-Fluorophenyl)-1H-pyrazol-4-yl)methyl)-3H-[1,2,3]triazolo[4,5-b]pyridin-5-amine] | 1 to 100 nM | 101 to 999 nM
Nc1cc(Cc2cnn(CC3CCc4ccccc4C3)c2)c2nn[nH]c2n1 (stereo not shown) [Example 136, 7-{[1-(1,2,3,4-Tetrahydronaphthalen-2-ylmethyl)-1H-pyrazol-4-yl]methyl}-3H-[1,2,3]triazolo[4,5-b]pyridin-5-amine] | 1 to 100 nM | 1 to 100 nM
CN(C)CCCNC(=O)c1ccc(Cn2cc(Cc3cc(N)nc4[nH]nnc34)cn2)cc1 [Example 89, 4-{[4-({5-Amino-3H-[1,2,3]triazolo[4,5-b]pyridin-7-yl}methyl)-1H-pyrazol-1-yl]methyl}-N-[3-(dimethylamino)propyl]benzamide] | 1 to 100 nM | 101 to 999 nM
Nc1cc(Cc2cnn(Cc3cccc(Oc4cccc5c4CNC5)c3)c2)c2nn[nH]c2n1 [Example 231, 7-[(1-{[3-(2,3-Dihydro-1H-isoindol-4-yloxy)phenyl]methyl}-1H-pyrazol-4-yl)methyl]-3H-[1,2,3]triazolo[4,5-b]pyridin-5-amine] | 1 to 100 nM | 1 to 100 nM
Nc1cc(Cc2cnn(Cc3cccc(O[C@H]4CN[C@H](CO)C4)c3)c2)c2nn[nH]c2n1 [Example 248, [(2S,4R)-4-(3-{[4-({5-Amino-3H-[1,2,3]triazolo[4,5-b]pyridin-7-yl}methyl)-1H-pyrazol-1-yl]methyl}phenoxy)pyrrolidin-2-yl]methanol] | 1 to 100 nM | 101 to 999 nM
COc1cc2ccc(Cn3cc(Cc4cc(N)nc5[nH]nnc45)cn3)cc2cn1 [Example 172, 7-((1-((3-Methoxyisoquinolin-7-yl)methyl)-1H-pyrazol-4-yl)methyl)-3H-[1,2,3]triazolo[4,5-b]pyridin-5-amine] | 1 to 100 nM | 101 to 999 nM
Nc1cc(Cc2cnn(Cc3ccc4cc(O)ccc4c3)c2)c2nn[nH]c2n1 [Example 68, 6-((4-((5-Amino-3H-[1,2,3]triazolo[4,5-b]pyridin-7-yl)methyl)-1H-pyrazol-1-yl)methyl)naphthalen-2-ol] | 1 to 100 nM | 101 to 999 nM
Nc1cc(Cc2cnn(Cc3cccc([C@H]4CNC(=O)C4)c3)c2)c2nn[nH]c2n1 [Example 188, (S)-4-(3-((4-((5-Amino-3H-[1,2,3]triazolo[4,5-b]pyridin-7-yl)methyl)-1H-pyrazol-1-yl)methyl)phenyl)pyrrolidin-2-one] | 1 to 100 nM | 101 to 999 nM
Nc1cc(Cc2cnn(Cc3ccc(C(=O)NCc4cnco4)cc3)c2)c2nn[nH]c2n1 [Example 92, 4-{[4-({5-Amino-3H-[1,2,3]triazolo[4,5-b]pyridin-7-yl}methyl)-1H-pyrazol-1-yl]methyl}-N-(1,3-oxazol-5-ylmethyl)benzamide] | 101 to 999 nM | 1000 to 10000 nM
N#Cc1ccc(Cn2cc(Cc3cc(N)nc4[nH]nnc34)cn2)cc1F [Example 272, 4-{[4-({5-Amino-3H-[1,2,3]triazolo[4,5-b]pyridin-7-yl}methyl)-1H-pyrazol-1-yl]methyl}-2-fluorobenzonitrile] | 1 to 100 nM | 101 to 999 nM
Nc1cc(Cc2cnn(Cc3ccc(N4CCOCC4)cc3)c2)c2nn[nH]c2n1 [Example 111, 7-((1-(4-Morpholinobenzyl)-1H-pyrazol-4-yl)methyl)-3H-[1,2,3]triazolo[4,5-b]pyridin-5-amine] | 1000 to 10000 nM | 101 to 999 nM
Nc1cc(Cc2cnn(Cc3cccc(C4CCNCC4)c3)c2C(F)(F)F)c2nn[nH]c2n1 [Example 285, 7-[(1-{[3-(Piperidin-4-yl)phenyl]methyl}-5-(trifluoromethyl)-1H-pyrazol-4-yl)methyl]-3H-[1,2,3]triazolo[4,5-b]pyridin-5-amine] | 1 to 100 nM | 1 to 100 nM
Nc1cc(Cn2nc3ccc(Cl)cc3n2)c2nn[nH]c2n1 [Example 163, 7-[(5-Chloro-2H-1,2,3-benzotriazol-2-yl)methyl]-3H-[1,2,3]triazolo[4,5-b]pyridin-5-amine] | 1000 to 10000 nM | 1000 to 10000 nM
Nc1cc(Cc2cnn(Cc3ccc4ncsc4c3)c2)c2nn[nH]c2n1 [Example 180, 7-{[1-(1,3-Benzothiazol-6-ylmethyl)-1H-pyrazol-4-yl]methyl}-3H-[1,2,3]triazolo[4,5-b]pyridin-5-amine] | 1 to 100 nM | 101 to 999 nM
Nc1cc(Cn2nc3cccc(Cl)c3n2)c2nn[nH]c2n1 [Example 164, 7-[(4-Chloro-2H-1,2,3-benzotriazol-2-yl)methyl]-3H-[1,2,3]triazolo[4,5-b]pyridin-5-amine] | 1000 to 10000 nM | 1000 to 10000 nM
Nc1cc(Cc2cnn(CC3Cc4ccccc4C3)c2)c2nn[nH]c2n1 [Example 118, 7-((1-((2,3-Dihydro-1H-inden-2-yl)methyl)-1H-pyrazol-4-yl)methyl)-3H-[1,2,3]triazolo[4,5-b]pyridin-5-amine] | 1 to 100 nM | 1 to 100 nM

Compound | IC50 (myeloperoxidase (MPO) [1]) | IC50 (myeloperoxidase (MPO) [2])
Nc1cccc(Cn2cc(Cc3cc(N)nc4[nH]nnc34)cn2)c1 [Example 126, 7-((1-(3-Aminobenzyl)-1H-pyrazol-4-yl)methyl)-3H-[1,2,3]triazolo[4,5-b]pyridin-5-amine] | 1 to 100 nM | 101 to 999 nM
Cc1cncc(Oc2cccc(Cn3cc(Cc4cc(N)nc5[nH]nnc45)cn3)c2)n1 [Example 140, 7-{[1-({3-[(6-Methylpyrazin-2-yl)oxy]phenyl}methyl)-1H-pyrazol-4-yl]methyl}-3H-[1,2,3]triazolo[4,5-b]pyridin-5-amine] | 1 to 100 nM | 101 to 999 nM
Nc1cc(Cn2nnc3c(Cl)cccc32)c2nn[nH]c2n1 [Example 166] | 1000 to 10000 nM | 1000 to 10000 nM
Nc1cc(Cc2cnn(Cc3ccc(CN4CCOCC4)cc3)c2)c2nn[nH]c2n1 [Example 108, 7-((1-(4-(Morpholinomethyl)benzyl)-1H-pyrazol-4-yl)methyl)-3H-[1,2,3]triazolo[4,5-b]pyridin-5-amine] | 1 to 100 nM | 101 to 999 nM
Nc1cc(Cc2cnn(Cc3cccc(-c4ccccc4)n3)c2)c2nn[nH]c2n1 [Example 123, 7-((1-((6-Phenylpyridin-2-yl)methyl)-1H-pyrazol-4-yl)methyl)-3H-[1,2,3]triazolo[4,5-b]pyridin-5-amine] | 1 to 100 nM | 1 to 100 nM
Nc1cc(Cc2cnn(C[C@@H]3C[C@H](Oc4ccc(F)cc4)CN3)c2)c2nn[nH]c2n1 [Example 280, 7-[(1-{[(2S,4S)-4-(4-Fluorophenoxy)pyrrolidin-2-yl]methyl}-1H-pyrazol-4-yl)methyl]-3H-[1,2,3]triazolo[4,5-b]pyridin-5-amine] | 1 to 100 nM | 101 to 999 nM
Nc1cc(Cc2cnn(Cc3ccc(C(=O)NCc4ncc[nH]4)cc3)c2)c2nn[nH]c2n1 [Example 74, N-((1H-Imidazol-2-yl)methyl)-4-((4-((5-amino-3H-[1,2,3]triazolo[4,5-b]pyridin-7-yl)methyl)-H-pyrazol-1-yl)methyl)benzamide] | 1 to 100 nM | 101 to 999 nM
Nc1cc(Cc2cnn(Cc3ccc(Cn4cccn4)cc3)c2)c2nn[nH]c2n1 [Example 109, 7-((1-(4-((1H-Pyrazol-1-yl)methyl)benzyl)-1H-pyrazol-4-yl)methyl)-3H-[1,2,3]triazolo[4,5-b]pyridin-5-amine] | 1 to 100 nM | 101 to 999 nM
Nc1cc(Cc2cnn(Cc3ccc(C(F)(F)F)cc3)c2)c2nn[nH]c2n1 [Example 103, 7-((1-(4-(Trifluoromethyl)benzyl)-1H-pyrazol-4-yl)methyl)-3H-[1,2,3]triazolo[4,5-b]pyridin-5-amine] | 101 to 999 nM | 101 to 999 nM
COc1ccc(Cn2cc(Cc3cc(N)nc4[nH]nnc34)cn2)cn1 [Example 149, 7-({1-[(6-Methoxypyridin-3-yl)methyl]-1H-pyrazol-4-yl}methyl)-3H-[1,2,3]triazolo[4,5-b]pyridin-5-amine] | 1 to 100 nM | 101 to 999 nM
Nc1cc(Cc2cnn(Cc3cccc(OC[C@@H]4CCNC4)c3)c2)c2nn[nH]c2n1 [Example 244] | 1 to 100 nM | 1 to 100 nM
Nc1cc(Cc2cnn(Cc3cccc(-c4cccnc4)c3)c2)c2nn[nH]c2n1 [Example 124, 7-((1-(3-(Pyridin-3-yl)benzyl)-1H-pyrazol-4-yl)methyl)-3H-[1,2,3]triazolo[4,5-b]pyridin-5-amine] | 1 to 100 nM | 1 to 100 nM
CC(C)(C)c1ccc(Cn2cc(Cc3cc(N)nc4[nH]nnc34)cn2)cc1 [Example 113, 7-((1-(4-(tert-Butyl)benzyl)-1H-pyrazol-4-yl)methyl)-3H-[1,2,3]triazolo[4,5-b]pyridin-5-amine] | 1 to 100 nM | 101 to 999 nM
CCn1c(Cn2cc(Cc3cc(N)nc4[nH]nnc34)cn2)nc2ccccc21 [Example 138, 7-((1-((1-Ethyl-1H-benzo[d]imidazol-2-yl)methyl)-1H-pyrazol-4-yl)methyl)-3H-[1,2,3]triazolo[4,5-b]pyridin-5-amine] | 1 to 100 nM | 101 to 999 nM
COc1ccc(CN2CCc3ccc(Cn4cc(Cc5cc(N)nc6[nH]nnc56)cn4)cc3C2=O)cc1 [Example 287, 7-{[4-({5-Amino-3H-[1,2,3]triazolo[4,5-b]pyridin-7-yl}methyl)-1H-pyrazol-1-yl]methyl}-2-[(4-methoxyphenyl)methyl]-1,2,3,4-tetrahydroisoquinolin-1-one] | 1 to 100 nM | 1000 to 10000 nM
CN(C)Cc1cccc(Cn2cc(Cc3cc(N)nc4[nH]nnc34)cn2)c1 [Example 255, 7-{[1-({3-[(Dimethylamino)methyl]phenyl}methyl)-1H-pyrazol-4-yl]methyl}-3H-[1,2,3]triazolo[4,5-b]pyridin-5-amine] | 1 to 100 nM | 1 to 100 nM
